53 compounds from patent US9963452B2, “Methods, compounds, and compositions for inhibition of ROS” (AUGUSTA PHARMACEUTICALS INC., priority 2013, dated 2018) can be followed below.

Each structure is given as a SMILES string.

The target of this experiment is ROS (Homo sapiens, UniProt P08922). The experiment in a line: In vitro ROS enzymatic reaction assay (HTRF, Cisbio). Type of experiment: biochemical. Also noted: ROS or EGFR enzyme, 0.008 ng/ul. To be noted: for inhibition at 10 µM / Kinase Inhib. 10 uM (%) / Kinase Inhib. 5 uM (%) / inhibition at 5 µM: ROS kinase; for inhibition at 10 µM / Kinase Inhib. 10 uM (%): compound at 10 uM; for inhibition at 10 µM: read-out: Kinase Inhib. 10 uM (%); for Kinase Inhib. 5 uM (%) / inhibition at 5 µM: compound at 5 uM; for inhibition at 5 µM: read-out: Kinase Inhib. 5 uM (%). As for the experimental part: The ROS enzymatic reactions were carried out with a high throughput screening platform for phosphor-detection of kinase activity. This platform based on homogeneous time resolved fluorescence (HTRF) technology from Cisbio Bioassays, Inc. (Cisbio). […] The reaction was allowed to proceed for 30 minutes at room temperature. An equal volume of detection buffer was then added to the reaction mix.
Chain of ROS (P08922 28-2347): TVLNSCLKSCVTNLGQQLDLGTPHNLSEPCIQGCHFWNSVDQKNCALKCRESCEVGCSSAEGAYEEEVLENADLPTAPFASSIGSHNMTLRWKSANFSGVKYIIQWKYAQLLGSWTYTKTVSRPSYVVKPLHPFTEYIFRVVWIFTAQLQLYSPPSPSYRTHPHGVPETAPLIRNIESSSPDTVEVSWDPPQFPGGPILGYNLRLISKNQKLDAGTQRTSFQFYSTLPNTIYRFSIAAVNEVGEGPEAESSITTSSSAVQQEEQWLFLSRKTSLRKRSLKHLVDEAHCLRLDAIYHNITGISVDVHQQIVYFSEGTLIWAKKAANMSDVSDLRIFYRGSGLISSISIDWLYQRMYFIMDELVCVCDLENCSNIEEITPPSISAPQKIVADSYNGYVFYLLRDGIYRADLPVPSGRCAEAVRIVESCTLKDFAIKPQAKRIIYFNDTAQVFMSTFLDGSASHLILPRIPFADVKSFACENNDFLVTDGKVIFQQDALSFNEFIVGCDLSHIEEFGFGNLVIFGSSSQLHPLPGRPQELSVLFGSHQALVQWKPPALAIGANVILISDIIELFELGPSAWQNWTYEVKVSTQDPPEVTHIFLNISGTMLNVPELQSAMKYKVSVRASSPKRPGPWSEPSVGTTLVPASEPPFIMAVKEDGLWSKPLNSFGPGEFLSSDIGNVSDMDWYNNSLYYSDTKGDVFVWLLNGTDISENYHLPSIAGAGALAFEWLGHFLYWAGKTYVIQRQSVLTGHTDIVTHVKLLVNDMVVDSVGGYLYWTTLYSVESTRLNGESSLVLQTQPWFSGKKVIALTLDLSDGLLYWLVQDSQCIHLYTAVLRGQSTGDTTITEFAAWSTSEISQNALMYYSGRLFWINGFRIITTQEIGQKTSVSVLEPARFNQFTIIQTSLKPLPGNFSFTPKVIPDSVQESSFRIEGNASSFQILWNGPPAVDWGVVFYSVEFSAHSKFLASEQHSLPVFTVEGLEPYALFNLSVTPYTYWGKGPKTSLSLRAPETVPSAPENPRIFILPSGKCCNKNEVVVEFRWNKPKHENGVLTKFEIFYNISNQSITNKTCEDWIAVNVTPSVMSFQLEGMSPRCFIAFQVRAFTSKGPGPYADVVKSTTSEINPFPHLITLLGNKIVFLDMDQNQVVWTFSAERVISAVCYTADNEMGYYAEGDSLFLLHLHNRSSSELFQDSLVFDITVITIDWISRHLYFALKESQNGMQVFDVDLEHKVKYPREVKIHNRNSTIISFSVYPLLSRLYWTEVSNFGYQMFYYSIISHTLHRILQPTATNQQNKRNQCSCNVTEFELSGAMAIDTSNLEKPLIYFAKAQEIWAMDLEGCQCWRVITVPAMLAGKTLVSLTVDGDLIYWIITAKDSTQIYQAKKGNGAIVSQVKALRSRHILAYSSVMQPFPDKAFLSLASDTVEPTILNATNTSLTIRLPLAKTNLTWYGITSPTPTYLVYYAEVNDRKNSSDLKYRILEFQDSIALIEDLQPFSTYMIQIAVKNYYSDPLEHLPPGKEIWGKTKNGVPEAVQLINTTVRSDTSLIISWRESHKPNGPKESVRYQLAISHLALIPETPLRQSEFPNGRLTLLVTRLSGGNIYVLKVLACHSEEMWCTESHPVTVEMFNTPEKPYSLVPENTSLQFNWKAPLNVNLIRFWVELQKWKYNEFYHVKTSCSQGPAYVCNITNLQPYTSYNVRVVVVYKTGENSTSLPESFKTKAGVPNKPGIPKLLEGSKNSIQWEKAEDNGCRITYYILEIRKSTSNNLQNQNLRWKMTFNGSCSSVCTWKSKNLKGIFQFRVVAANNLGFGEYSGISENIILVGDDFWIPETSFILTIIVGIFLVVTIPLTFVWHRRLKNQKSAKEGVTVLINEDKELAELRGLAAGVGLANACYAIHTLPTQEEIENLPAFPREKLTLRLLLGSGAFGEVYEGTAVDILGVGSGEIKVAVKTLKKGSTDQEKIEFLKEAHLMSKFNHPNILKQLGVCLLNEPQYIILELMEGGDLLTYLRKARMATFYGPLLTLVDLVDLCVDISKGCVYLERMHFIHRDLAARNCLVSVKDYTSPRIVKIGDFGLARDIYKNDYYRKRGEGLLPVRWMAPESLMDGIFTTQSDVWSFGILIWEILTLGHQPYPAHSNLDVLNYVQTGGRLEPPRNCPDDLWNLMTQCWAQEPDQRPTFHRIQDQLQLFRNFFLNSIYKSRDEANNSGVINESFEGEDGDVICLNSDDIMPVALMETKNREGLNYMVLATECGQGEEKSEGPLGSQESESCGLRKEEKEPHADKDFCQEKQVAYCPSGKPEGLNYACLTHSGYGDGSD

For `Cc1c(Br)c([N+](=O)[O-])nn1[C@H](C)C(=O)Nc1c(C)n(C)n(-c2ccccc2)c1=O`, the IC50 is > 100000 nM and the inhibition at 10 µM amounted to 34.1%. `O=C(NCC1Cc2cc(-c3cncnc3)cc(Cl)c2O1)c1cccc(Cn2cccn2)c1` (centres unmarked): the half-inhibitory concentration (IC50) is > 100000 nM and the “Kinase Inhib. 10 uM (%)” value worked out at 30.25%. In the case of `Cc1cc(C)n(-c2cccc(C(=O)NCC3Cc4cc(Cl)cc(-c5cnccn5)c4O3)c2)n1` (centres unmarked), the half-maximal inhibitory concentration (IC50) was > 100000 nM and the “Kinase Inhib. 10 uM (%)” value came out at 29.68%. Regarding `COc1ccccc1[C@@H]1C(C#N)=C(N)Oc2n[nH]c(C(F)(F)F)c21`, half-maximal inhibition (IC50) was put at 1700 nM and the inhibition at 10 µM is 61.6%. For `Nc1nc(Nc2ccc(C(=O)N3CCCC4CCCCC43)cc2)cc(Nc2ccc3ncsc3c2)n1` (centres unmarked), the “Kinase Inhib. 5 uM (%)” value is listed as 27.92%. Still for that read-out and setting: the result for `COc1ccc(C(NC(=O)c2n[nH]c(-c3ccccc3)c2C)c2ccncc2)cc1` (centres unmarked) reads 31.08%. For `O=C(NCC1CCCO1)c1cccc(Nc2nccc(Nc3ccc4ncsc4c3)n2)c1` (centres unmarked), the inhibition at 5 µM is 101%. As to `COc1ccccc1C1C(C#N)=C(N)Oc2[nH]nc(C)c21` (centres unmarked), the “Kinase Inhib. 5 uM (%)” value is listed as 27.58%. Turning to `O=c1nc2[nH]c3ccc([N+](=O)[O-])cc3nc-2c(=O)[nH]1`, the “Kinase Inhib. 5 uM (%)” value is recorded as 26.23%. `Cc1cc(=O)n2nc(CC(=O)c3ccccc3)[nH]c2n1`: the inhibition at 5 µM stood at 33.2%. Take `O=C(c1ccccc1)c1nc(-c2ccco2)[nH]c1NCc1ccccc1`: the “Kinase Inhib. 5 uM (%)” value was 25.92%. Still for that read-out and setting: under `COc1ccccc1NC(=O)C1=C(C)Nc2ncnn2C1c1ccc[nH]1` (centres unmarked) stands 40.40%. The compound `CC(C)c1nc(Nc2ccc3ncsc3c2)nc(NC2CCCCC2)n1` yielded a half-maximal inhibitory concentration (IC50) of 1500 nM.

Turning to `CC(C)c1nc(NCc2ccccc2)nc(Nc2ccc3ncsc3c2)n1`, inhibition was half-maximal at 358 nM (IC50). The same measure, in the same setting: under `CC(C)c1nc(NCC2CCCCC2)nc(Nc2ccc3ncsc3c2)n1` stands 528 nM. As to `CCOc1nc(Nc2cccc(Cc3nc4ccccc4s3)c2)nc(C(C)C)n1`, the IC50 worked out at 9260 nM. Compound `CC(C)c1nc(Nc2ccc(N)cc2)nc(Nc2ccc3ncsc3c2)n1` registered an IC50 of 746 nM.

In the case of `CC(C)c1nc(Nc2cccc(Br)c2)nc(Nc2ccc3ncsc3c2)n1`, half-maximal inhibition (IC50) was put at 86 nM. With `CC(C)c1nc(Nc2ccc(Br)cc2)nc(Nc2ccc3ncsc3c2)n1`, the IC50 was 840 nM.

`CC(C)c1nc(Nc2cccc(Br)c2)nc(Nc2cc(C3CC3)n[nH]2)n1` had an IC50 of 38 nM. `CC(C)c1nc(Nc2ccc(Br)cc2)nc(Nc2cc(C3CC3)n[nH]2)n1`: the concentration for half-maximal inhibition (IC50) came to 67 nM. `CC(C)c1nc(Nc2cccc(OC(F)(F)F)c2)nc(Nc2cc(C3CC3)n[nH]2)n1`: 40 nM corresponded to half-maximal inhibition (IC50).

`O=C(c1ccc(Nc2ncc(Br)c(Nc3ccc4ncsc4c3)n2)cc1)N1CCCCC1` gave an IC50 of 620 nM. Regarding `Cc1ccc(Cn2c(NCc3nc4ccccc4n3C)nc3ccccc32)cc1` [drawing 218], the inhibition at 10 µM worked out at 20.2%. In the case of `NC(=O)c1c(NC(=O)[C@H]2CC(=O)N(c3ccccc3)C2)sc2c1CCCC2` [drawing 219], the IC50 worked out at 1300 nM and the inhibition at 10 µM was determined as 41.5%.

Turning to `Clc1ccc2nc(NCc3ccccn3)nc(-c3ccccc3)c2c1` [drawing 220], the inhibition at 10 µM amounted to 25%. For `NS(=O)(=O)c1ccc(CCNC(=O)c2cc(-c3cccs3)nc3ccccc23)cc1` [drawing 221], the inhibition at 10 µM stood at 21.5%. `Cc1[nH]c2nc(NCc3cccc([N+](=O)[O-])c3)nn2c(=O)c1Cc1ccccc1` [drawing 222]: the “Kinase Inhib. 10 uM (%)” value was determined as 23.83%.

`COc1ccccc1-c1cc(C(F)F)n2ncc(C(=O)NCc3cccnc3)c2n1` [drawing 224]: inhibition was half-maximal at 4000 nM (IC50) and the inhibition at 10 µM came to 35%. As to `CCOC(Nc1cc(-c2sccc2-n2c(C)ccc2C)[nH]n1)OCC` [drawing 227], the “Kinase Inhib. 10 uM (%)” value turned out to be 27.57%. As for `O=c1cc(Oc2ccccc2)c(-c2nc[nH]n2)nn1-c1ccccc1` [drawing 228], the “Kinase Inhib. 10 uM (%)” value came out at 20.40%. As to `O=C(NNc1nc2ccccc2nc1Cc1ccccc1)c1cccc(Cl)c1` [drawing 229], the inhibition at 10 µM is 24.3%. For `O=C1NN=C(c2ccccc2)/C1=C/Nc1ccccc1` [drawing 231], the inhibition at 5 µM stood at 30.6%. With `COc1ccc(N/C=C2\C(=O)NN=C2c2ccccc2)cc1` [drawing 232], the inhibition at 5 µM stood at 34.2%.

`Cc1ccc(NC=C2C(=O)NN=C2c2ccccc2)cc1` [drawing 233]: the inhibition at 5 µM worked out at 43.7%. `Cc1cccc(Nc2ccnc(Nc3cccc(C(=O)N4CC=CCC4)c3)n2)c1` [drawing 234]: inhibition was half-maximal at 80 nM (IC50) and the inhibition at 5 µM is 94.2%.

As for `O=C(NCCc1ccc(F)cc1)c1cccc(Nc2nccc(Nc3ccc4ncsc4c3)n2)c1` [drawing 235], the concentration for half-maximal inhibition (IC50) came out at 130 nM and the “Kinase Inhib. 5 uM (%)” value is reported as 100.68%. Take `CCN(CC)CCNC(=O)c1cccc(Nc2nccc(Nc3ccc4ncsc4c3)n2)c1` [drawing 236]: the inhibition at 5 µM stood at 102%.

With `Nc1nc(Nc2ccc(C(=O)NCc3ccco3)cc2)cc(Nc2ccc3ncsc3c2)n1` [drawing 238], the IC50 stood at 3810 nM and the inhibition at 5 µM stood at 49%. In the case of `O=C(NCc1ccco1)c1cccc(Nc2nccc(Nc3ccc4ncsc4c3)n2)c1` [drawing 239], inhibition was half-maximal at 160 nM (IC50) and the inhibition at 5 µM turned out to be 101%. Regarding `COc1cccc(Nc2cc(Nc3cccc(C(=O)N4CCN(C(C)=O)CC4)c3)nc(N)n2)c1` [drawing 240], the inhibition at 5 µM came to 22.3%. Take `CC(=O)N[C@@H]1CCN(C(=O)c2cccc(Nc3cc(N(C)c4cccc(C)c4)ncn3)c2)C1` [drawing 241]: the inhibition at 5 µM is 29.6%. Consider `Cc1cccc(Nc2nccc(Nc3cccc(C(=O)NCc4ccc(F)cc4)c3)n2)c1` [drawing 242], for which the inhibition at 5 µM came to 23.7%.

Regarding `CCC(C)(C)NC(=O)c1cccc(Nc2nccc(Nc3ccc4ncsc4c3)n2)c1` [drawing 243], inhibition was half-maximal at 620 nM (IC50) and the inhibition at 5 µM came out at 101%. On to `Cc1cccc(Nc2nccc(Nc3cccc(C(=O)NCCN4CCOCC4)c3)n2)c1` [drawing 244], for which inhibition was half-maximal at 2100 nM (IC50) and the inhibition at 5 µM is 98.4%. Take `Cc1cccc(Nc2nccc(Nc3cccc(C(=O)Nc4ccc(F)cc4)c3)n2)c1` [drawing 245]: the inhibition at 5 µM is 47.3%. In the case of `Clc1ccc(CNc2cc(-c3ccccc3)ncn2)cc1` [drawing 246], the inhibition at 10 µM came out at 21.2%. `COc1cccc(Nc2nc(N)c(C(=O)c3c(C)[nH]c4ccccc34)s2)c1` [drawing 247]: the inhibition at 10 µM was 28.5%. `O=C(c1cccc(-c2noc(-c3n[nH]c4c3CCCC4)n2)c1)N1CCCCC1` [drawing 248]: the IC50 came to 4100 nM and the inhibition at 10 µM came out at 39.5%.

`CCN(CCO)c1nc(Nc2ccc(F)cc2)c2cnn(-c3ccccc3)c2n1` [drawing 249]: the IC50 came to 16800 nM and the “Kinase Inhib. 10 uM (%)” value turned out to be 38.92%. Regarding `COc1ccc(Nc2nc(N(C)CCO)nc3c2cnn3-c2ccccc2)cc1` [drawing 250], the “Kinase Inhib. 5 uM (%)” value stood at 41.55%. Turning to `CC(C)(C)c1cc(C(=O)NNc2cccc(Cl)c2)n(Cc2ccccc2)n1` [drawing 252], the “Kinase Inhib. 10 uM (%)” value stood at 27.16%. Consider `O=C(NNc1cc(C(F)(F)F)ccc1Cl)c1cccnc1Oc1ccccc1` [drawing 253], for which the 50% inhibitory concentration (IC50) is > 100000 nM and the inhibition at 10 µM was found to be 31.2%.

The IC50 is the point on the concentration scale where inhibition reaches its midpoint. Lower therefore signals greater potency in that assay.
